Test results taken from patent publication US20150141506A1, “INDANE DIMERS FOR USE IN THE TREATMENT OF AUTOIMMUNE INFLAMMATORY DISEASE” (Venantius Limited, priority 2012, published 2015).
Converted amounts (≈) assume the structure as drawn. “Also recorded” adds a separate entry of the source. Read-outs that look alike come from different tables or passages of the source.

Legend:
[1] = test system: IL2 release from Jurkat cells; experiment: Effect of compounds on IL-2 secretion in T lymphocytes (Jurkat 6.1, anti-CD3/anti-CD28 stimulated, ELISA); format: cell-based; conditions: 30 min pre-treatment, 24 h, DMSO control 320.67 (plate 2), 338.25 (plate 3)
Experimental: The T cell line Jurkat 6.1 (ATCC) was used. Cells were pre-treated for 30 min with 1 μM or 10 μM of the respective compound and then stimulated with plate-bound anti-CD3 (BD Pharmingen) and anti-CD28 (AnCell). DMSO was used as vehicle control. […] After 24 hs the supernatant was collected and IL-2 secretion was measured by ELISA.
Compounds were prepared by dissolution in DMSO to yield final concentrations of 1 and 10 μg/ml

[2] = test system: 5% DSS colitis in BDF 1 mice; experiment: 5% DSS murine colitis, Experiment 2 (Method 2); format: in vivo; conditions: day 7, 10 ml/kg oral gavage daily day 0-6, 5-ASA 100 mg/kg; for DAI versus vehicle: 31 at 2 mg/ml, 47 at 4 mg/ml
Description: A total of 90 BDF 1 (H. Pylori-free, murine norovirus-free) male mice (Harlan Laboratories, UK) were used in the study. Animals were 8-10 weeks old on supply and used at 10-12 weeks of age. All mice were held in individually ventilated cages (IVCs) in an SPF (Specific Pathogen Free) barrier unit. The animals were identified by numbered cages and by ear punches.
Mice were randomised into study groups. All the mice in any one cage received the same treatment and were ear punched for identification purposes. Daily body weight measurements were used to calculate the volume of test item or vehicle administered in the applicable groups.
DSS (MP Biomedicals 0216011090, lot# M2709) was prepared as a 5% (w/v) solution in the drinking water and made fresh daily on days 0 to 6 inclusive. DSS was administered from day 0 to day 7.
Test items were stored at −20° C. until the initiation of the study. Each test item was formulated as a homogenous suspension in 0.5% carboxymethyl cellulose (CMC, Sigma C4888) in sterile water (Sigma W3500, lot# RNBC1419), using an Ultraturax homogeniser, on study day −1. Compound 31 was formulated at 2 mg/ml and 47 was formulated at 4 mg/ml. After formulation the test item and the vehicle stocks anonymised with a letter code. All solutions were stored at 4° C. during the study, with 3.8 ml of each suspension being dispensed daily. Test items were administered by oral gavage, daily at 09.00 hrs, at 10 ml/kg, from study day 0 to study day 6.
5-ASA (5-Aminosalicylic acid, Sigma A3537, lot#051M1878V) was aliquoted into pre-weighed amounts between 71 and 84 mg. Like test item suspensions, these aliquots were anonymised by a letter code. […]
Any animal was culled if the weight loss was greater than 20%. Animal well-being was monitored daily. Once daily from day 0 until the end of the study, all mice were weighed and assessed for stool consistency, and the presence of overt blood in the stool or around the anus according to the criteria in 2.1 […]

[3] = test system: 5% DSS colitis in BALB/c mice; experiment: Acute murine 5% DSS colitis model, Experiment 1; format: in vivo
Description: The study is widely used as a model for studying the pathogenesis of UC and also for screening new therapeutic interventions for the treatment of UC.
In these studies, an acute colitis model was used, with 5% DSS administered in the drinking water of BALB/c mice. This dosage regime induces severe acute colitis, by days 7-8 mice had overt rectal bleeding and marked weight loss; unless sacrificed beforehand, all mice would have died by days 10-12.
Specific Pathogen-Free BALB/c mice, 6-8 weeks of age, were obtained from a commercial supplier (Harlan UK). Mice were fed irradiated diet and housed in individually ventilated cages (Tecniplast UK) under positive pressure.
DSS (5%) was dissolved in drinking water. Compounds were administered orally at a dose of 10 mg/kg or 30 mg/kg on days 0-7, and mice were culled on day 8 or day 9, depending on the severity of the disease. The mice were checked each day for morbidity and the weight of individual mice was recorded. Induction of colitis was determined upon autopsy, length of colon and histology. Colons were recovered and stored at −20° C. for immunological analysis. All of the compounds and experimental groups are randomly alphabetically labelled. Throughout experiments all data recording was performed in a blind manner. The codes on boxes/groups were not broken until after the data was analysed i.e. boxes labelled A, B, C etc were identified as untreated, DSS-treated, or DSS+compound-treated.
To quantify the extent of colitis, a disease activity index (DAI) was determined based on weight loss, faecal blood and stool consistency. A score was given for each parameter, with the sum of the scores used as the DAI. For each treatment group n=8.
All compounds were prepared for oral gavage (0.1 mL per os (p.o.) per 10 g body weight) as a suspension in 0.5% carboxymethyl cellulose/2% Tween 80, at a dose of 3-30 mg/Kg.

[4] = Solubility in Milli-RO water and pH buffers; format: physicochemical
Experimental: The sodium salt, potassium salt, calcium salt, α-methylbenzylamine salt and N-Methyl-(D)-Glucamine salt were synthesised.
The solubility of the four compounds were determined: […]

[5] = Partition coefficient (Log10 POW) by HPLC method; format: physicochemical; conditions: reverse phase C18 HPLC; for Log10 POW, Acid: acidic pH; for Log10 POW, Basic: alkaline pH; for Log10 POW, Neutral: neutral pH
[6] = test system: chronic colitis in IL10-/- BALB/c strain mice; experiment: Chronic IL10-/- colitis model; format: in vivo; conditions: MWF
Experimental: FIG. 15: Is a group showing weight loss in IL10^−−/−− mice treated with vehicle or compound 6. Mice were administered compound 6 (300 mg/kg/week) or vehicle orally on a Monday/Wednesday/Friday (MWF) dosing schedule. Mice were ˜4 weeks of age at start of experiment and were treated for 9 weeks. Mice were weighed weekly and data are presented as Mean±SEM from 9-12 mice per group. Mice were monitored for overt disease, rectal prolapse, and moribund animals were humanely killed;
Mice with a deletion in the IL10^−−/−− gene spontaneously develop chronic colitis, with the age of onset and the severity of the disease being dependent on background mouse strain and the conditions in which the animals are housed. The onset of colitis in IL10^−−/−− mice housed under the conditions used in this study was also strain dependent, with an earlier onset and greater severity, in terms of mortality, in BALB/c strain mice relative to C57BL/6 strain animals. In this experiment, animals received oral treatment on a MWF regime over 9 weeks. Initially, both groups of mice progressively gain weight (FIG. 15). […] By week 9 animals had marked weight loss, with one moribund animal humanely killed on day 60 in each group. As other mice were losing weight and developing clinical symptoms of disease, both groups were culled at week 9 (day 63) and analysed.

[7] = Plasma half-life in the rat; format: in vivo; conditions: read-out: plasma half-life (t1/2) (converted)
[8] = day 7, 10 mg/kg daily for 7 days, vehicle 9.3±0.51
[9] = Milli-RO water, water, read-out: solubility, Milli-RO H20
[10] = pH 4.0 buffer, pH 4, aqueous buffer, read-out: solubility, pH 4.0 Buffer
[11] = pH 7.0 buffer, pH 7, aqueous buffer, read-out: solubility, pH 7.0 Buffer
[12] = pH 9.0 buffer, pH 9, aqueous buffer, read-out: solubility, pH 9.0 Buffer
[13] = 3, 10 and 30 mg/Kg oral daily for 7 days

O=C(Nc1ccc(O)c(C(=O)O)c1)c1ccc(C[C@@]2(C3=Cc4ccccc4C3)Cc3ccccc3[C@H]2O)cc1 [Compound 47, 2-hydroxy-5-(4-(((1S,2S)-1-hydroxy-2,3-dihydro-1H,1′H-[2,2′-biinden]-2-yl)methyl)benzamido)benzoic acid]
IL-2 production, absolute values ([1]; compound 1 uM): 99.64 pg/mL
IL-2 production, absolute values ([1]; compound 10 uM): 98.79 pg/mL
DAI versus vehicle [2]: reduced DAI comparable or equal to 5ASA
loss of body weight versus vehicle control ([2]; 47 formulated at 4 mg/ml): does not result in an increase in loss of body weight

NCC(=O)O[C@@H]1c2ccccc2C[C@@]1(Cc1ccc(C(=O)O)cc1)C1=Cc2ccccc2C1 [Compound 31, 4-{[(1′S,2′S)-1′-(glycyloxy)-1′,3′-dihydro-1H,2′H-2,2′-biinden-2′-yl]methyl}benzoic acid]
IL-2 production, absolute values ([1]; compound 1 uM): 233.38 pg/mL
IL-2 production, absolute values ([1]; compound 10 uM): 225.63 pg/mL
DAI versus vehicle [2]: reduced DAI comparable or equal to 5ASA

O=C(O)c1ccc(C[C@]2(C3=Cc4ccccc4C3)Cc3ccccc3[C@H]2O)cc1 [Compound 5, 4-(((1S,2R)-1-hydroxy-2,3-dihydro-1H,1′H-2,2′-biinden-2-yl)methyl)benzoic acid]
IL-2 production, absolute values ([1]; compound 1 uM): 127.29 pg/mL
IL-2 production, absolute values ([1]; compound 10 uM): 134.14 pg/mL
activity in 5% DSS murine colitis (DAI), in words ([3]; 30 mg/kg p.o. daily for 7 days): highly active
disease activity index (DAI) [3, 8]: no significant (P>0.05) effect
disease activity index (DAI) ([3]; day 7, 30 mg/kg p.o. daily for 7 days, vehicle 9.0±0.53): 3.2±0.73
solubility [4, 9]: 1.38 µg/mL (≈ 3.61 µM)
aqueous solubility, in words ([4]; free acid enantiomers): limited aqueous solubility
solubility [4, 10]: 0.33 µg/mL (≈ 0.863 µM)
solubility [4, 11]: 320 µg/mL (≈ 837 µM)
solubility [4, 12]: 370 µg/mL (≈ 966 µM)
Log10 POW, Acid [5]: 3.9
Log10 POW, Basic [5]: 3.7
Log10 POW, Neutral [5]: 3.7

O=C(O)c1ccc(C[C@@]2(C3=Cc4ccccc4C3)Cc3ccccc3[C@H]2O)cc1 [Compound 6]
colon pathology (histology score) relative to vehicle ([3]; 10 mg/Kg): highly statistically significant reduction
colon pathology (histology score) relative to vehicle ([3]; 30 mg/Kg): highly statistically significant reduction
overt reactions in mice [3, 13]: caused no overt reactions
severity of colitis, multiple parameters of disease [3, 13]: ameliorated the severity of colitis; also recorded: dose-dependent
DAI on the day of autopsy versus vehicle controls ([3]; 3-30 mg/kg, each dose level): significantly (P<0.05-P<0.01) lower
potency compared among the four enantiomers, in words ([3]; 30 and 10 mg/kg): most potent of the four enantiomers
efficacy relative to prednisolone at 5 mg/Kg ([3]; compound 6 at 30 mg/Kg): comparable, or better; also recorded: comparable or better
inhibition of colon shortening versus vehicle controls ([3]; day 7, 3 mg/kg): did not have a significant effect
inhibition of colon shortening versus vehicle controls ([3]; day 7, 10 mg/kg): did have a significant effect
disease activity index (DAI) [3, 8]: 3.3±0.52
colon cytokine levels (IL1β, TNFα, IL6) ([3]; day 7, 30 mg/kg): significant (P<0.05, 30 mg/kg) and dose-dependant reduction
inhibition of colon shortening versus vehicle controls ([3]; day 7, 30 mg/kg): did have a significant effect; also recorded: significantly better than Prednisolone
reduction of colonic myeloperoxidase (MPO) activity ([3]; day 7, 30 mg/kg): 63%
solubility [4, 9]: > 60000 µg/mL
solubility [4, 10]: 0.5 µg/mL (≈ 1.31 µM)
solubility [4, 11]: > 60000 µg/mL
solubility [4, 12]: > 3000 µg/mL
Log10 POW, Acid [5]: 2.6
Log10 POW, Basic [5]: 4.3
Log10 POW, Neutral [5]: 3.5
survival by Kaplan-Meier analysis versus vehicle ([6]; 300 mg/kg/week oral, 9 weeks): no statistical difference in survival
weight loss and deaths from colitis relative to vehicle, in words ([6]; 300 mg/kg/week oral, 9 weeks): delayed weight loss and reduced deaths from colitis
mortalities ([6]; 300 mg/kg/week oral, 9 weeks, vehicle 25%): 9.2%
weight gain maintained until ([6]; 300 mg/kg/week oral, vehicle stopped gaining from week 5): 8 week
Serum Amyloid A (SAA) levels relative to vehicle ([6]; week 9, 300 mg/kg/week oral): significantly (P<0.05; Student's t-test) reduced
extent of colon pathology (histology score) relative to vehicle ([6]; week 9, 300 mg/kg/week oral): significantly reduced
half-life [7]: 3 h
